Measurements from ChEMBL document CHEMBL5236668, “Synthesis and biological evaluation of novel SN38-glucose conjugate for colorectal cancer treatment” (Bioorg Med Chem Lett, 2023).
≈ marks a conversion by molar mass, not a printed value. Calls of active or inactive are those of the source. The rule behind the calls is not given here.

Legend:
[1] = Solubility of the compound in 0.9% NaCl solution; type: physicochemical
[2] = Solubility of the compound in Tween 80 solution; type: physicochemical
[3] = Solubility of the compound in water; type: physicochemical
HCT-116 [4] = test: Induction of apoptosis in human HCT-116 cells assessed as necrotic cells at 25 uM by Annexin V-FITC staining based flow cytometry (reference value: 0.73 %); type: functional
HCT-116 [5] = test: Induction of apoptosis in human HCT-116 cells assessed as late apoptotic cells at 25 uM by Annexin V-FITC staining based flow cytometry (reference value: 3.51 %); type: functional
HCT-116 [6] = test: Induction of apoptosis in human HCT-116 cells assessed as viable cells at 25 uM by Annexin V-FITC staining based flow cytometry (reference value: 94.3%); type: functional; details: read-out: Activity
HCT-116 [7] = test: Anticancer activity against human HCT-116 cells assessed as inhibition of cell growth by MTT assay; type: functional, cell-based
SW480 [8] = test: Induction of apoptosis in human SW480 cells assessed as necrotic cells at 25 uM by Annexin V-FITC staining based flow cytometry (reference value: 3.05 %); type: functional
[9] = Cytotoxicity against human L02 cells assessed as inhibition of cell growth by MTT assay; type: toxicity, cell-based
SW480 [10] = test: Antimigratory activity against human SW480 cells assessed as inhibition of cell migration by wound healing assay relative to control; type: functional; set-up: scale not given: the % may be the effect or the level left
[11] = Cytotoxicity against HEK293T cells assessed as inhibition of cell growth by MTT assay; type: toxicity, cell-based, HEK-293T; details: human
SW480 [12] = test: Anticancer activity against human SW480 cells assessed as inhibition of cell growth by MTT assay; type: functional, cell-based
[13] = Toxicity in iv dosed nude mouse xenografted with human SW480 cells assessed as effect on body weight administered at 3 days intervals for 21 days; type: organism-based; details: in vivo, 504 h, time 21 day
SW480 [14] = test: Induction of apoptosis in human SW480 cells assessed as viable cells at 25 uM by Annexin V-FITC staining based flow cytometry (reference value: 89.3 %); type: functional; details: read-out: Activity
SW480 [15] = test: Induction of apoptosis in human SW480 cells assessed as late apoptotic cells at 25 uM by Annexin V-FITC staining based flow cytometry (reference value: 5.12 %); type: functional
HCT-116 [16] = test: Induction of apoptosis in human HCT-116 cells assessed as early apoptotic cells at 25 uM by Annexin V-FITC staining based flow cytometry (reference value: 1.46 %); type: functional
[17] = Toxicity in nude mouse xenografted with human SW480 cells assessed as effect on albumin level at 0.016 mmol/Kg, iv administered at 3 days intervals for 21 days; type: organism-based; details: in vivo, 504 h, time 21 day
SW480 [18] = test: Antitumor activity against human SW480 cells xenografted in mouse assessed as reduction in tumor weight at 0.008 to 0.016 mmol/Kg, iv administered at 3 days intervals for 21 days; type: functional, organism-based; details: dose 0.008-0.016 mmol/Kg, time 21.0 day
[19] = Toxicity in nude mouse xenografted with human SW480 cells assessed as effect on MCV level at 0.016 mmol/Kg, iv administered at 3 days intervals for 21 days by routine blood test; type: organism-based; details: in vivo, 504 h, time 21 day
[20] = Toxicity in nude mouse xenografted with human SW480 cells assessed as effect on WBC level at 0.016 mmol/Kg, iv administered at 3 days intervals for 21 days by routine blood test; type: organism-based; details: in vivo, 504 h, time 21 day
[21] = Selectivity index, ratio of IC50 for cytotoxicity against HEK293T cells to IC50 for anticancer activity against human SW480 cells; type: toxicity, cell-based; details: HEK293T cells and SW480 cells, read-out: Ratio IC50
HCT-116 [22] = test: Induction of apoptosis in human HCT-116 cells assessed as blue chromatin condensation by Hoechst 33258 staining based analysis; type: functional, cell-based
[23] = Toxicity in nude mouse xenografted with human SW480 cells assessed as effect on total protein level at 0.016 mmol/Kg, iv administered at 3 days intervals for 21 days; type: organism-based; details: in vivo, 504 h, time 21 day
SW480 [24] = test: Antitumor activity against human SW480 cells xenografted in mouse assessed as reduction in tumor growth at 0.008 to 0.016 mmol/Kg, iv administered at 3 days intervals for 21 days; type: functional, organism-based; details: dose 0.008-0.016 mmol/Kg, time 21.0 day
SW480 [25] = test: Antitumor activity against human SW480 cells xenografted in iv dosed mouse assessed as reduction in tumor volume administered at 3 days intervals for 21 days; type: functional, organism-based; details: dose 0.008-0.016 mmol/Kg, time 21.0 day
[26] = Toxicity in nude mouse xenografted with human SW480 cells assessed as effect on blood urea nitrogen level at 0.016 mmol/Kg, iv administered at 3 days intervals for 21 days; type: organism-based; details: in vivo, 504 h, time 21 day
[27] = Selectivity index, ratio of IC50 for cytotoxicity against HEK293T cells to IC50 for anticancer activity against human HCT-116 cells; type: toxicity, cell-based; details: HEK293T cells and HCT-116 cells, read-out: Ratio IC50
[28] = Toxicity in nude mouse xenografted with human SW480 cells assessed as effect on cholesterol level at 0.016 mmol/Kg, iv administered at 3 days intervals for 21 days; type: organism-based; details: in vivo, 504 h, time 21 day
SW480 [29] = test: Inhibition of cell invasion in human SW480 cells by Boyden chamber invasion assay; type: functional, cell-based; details: dose 5-50 µM
HCT-116 [30] = test: Inhibition of cell invasion in human HCT-116 cells by Boyden chamber invasion assay; type: functional, cell-based; details: dose 5-50 µM
[31] = Selectivity index, ratio of IC50 for cytotoxicity against human L02 cells to IC50 for anticancer activity against human SW480 cells; type: toxicity, cell-based; details: L02 cells and SW480 cells, read-out: Ratio IC50
HCT-116 [32] = test: Induction of apoptosis in human HCT-116 cells assessed as appearance of wrinkled and round cells by Hoechst 33258 staining based analysis; type: functional, cell-based
[33] = Toxicity in nude mouse xenografted with human SW480 cells assessed as effect on hemoglobin level at 0.016 mmol/Kg, iv administered at 3 days intervals for 21 days by routine blood test; type: organism-based; details: in vivo, 504 h, time 21 day
HCT-116 [34] = test: Induction of apoptosis in human HCT-116 cells assessed as appearance of paired apoptotic vesicles around the nucleus by Hoechst 33258 staining based analysis; type: functional, cell-based
[35] = Toxicity in nude mouse xenografted with human SW480 cells assessed as effect on PDW at 0.016 mmol/Kg, iv administered at 3 days intervals for 21 days by routine blood test; type: organism-based; details: in vivo, 504 h, time 21 day
SW480 [36] = test: Induction of apoptosis in human SW480 cells assessed as early apoptotic cells at 25 uM by Annexin V-FITC staining based flow cytometry (reference value: 2.53 %); type: functional
HCT-116 [37] = test: Antimigratory activity against human HCT-116 cells assessed as inhibition of cell migration by wound healing assay relative to control; type: functional; set-up: scale not given: the % may be the effect or the level left
SW480 [38] = test: Induction of apoptosis in human SW480 cells assessed as appearance of wrinkled and round cells by Hoechst 33258 staining based analysis; type: functional, cell-based
[39] = Toxicity in nude mouse xenografted with human SW480 cells assessed as effect on MCH level at 0.016 mmol/Kg, iv administered at 3 days intervals for 21 days by routine blood test; type: organism-based; details: in vivo, 504 h, time 21 day
[40] = Toxicity in nude mouse xenografted with human SW480 cells assessed as effect on RBC level at 0.016 mmol/Kg, iv administered at 3 days intervals for 21 days by routine blood test; type: organism-based, Erythrocyte; details: in vivo, 504 h, time 21 day
[41] = Toxicity in nude mouse xenografted with human SW480 cells assessed as effect on alanine transaminase level at 0.016 mmol/Kg, iv administered at 3 days intervals for 21 days; type: organism-based; details: in vivo, 504 h, time 21 day
SW480 [42] = test: Induction of apoptosis in human SW480 cells assessed as blue chromatin condensation by Hoechst 33258 staining based analysis; type: functional, cell-based
[43] = Toxicity in nude mouse xenografted with human SW480 cells assessed as effect on body weight at 0.008 to 0.016 mmol/Kg, iv administered at 3 days intervals for 21 days; type: organism-based; details: in vivo, 504 h, dose 0.008-0.016 mmol/Kg, time 21 day
[44] = Selectivity index, ratio of IC50 for cytotoxicity against human L02 cells to IC50 for anticancer activity against human HCT-116 cells; type: toxicity, cell-based; details: L02 cells and HCT-116 cells, read-out: Ratio IC50
SW480 [45] = test: Induction of apoptosis in human SW480 cells assessed as appearance of paired apoptotic vesicles around the nucleus by Hoechst 33258 staining based analysis; type: functional, cell-based
[46] = Toxicity in nude mouse xenografted with human SW480 cells assessed as effect on creatinine level at 0.016 mmol/Kg, iv administered at 3 days intervals for 21 days; type: organism-based; details: in vivo, 504 h, time 21 day

`CCc1c2c(nc3ccc(O)cc13)-c1cc3c(c(=O)n1C2)COC(=O)[C@]3(O)CC` [7-ETHYL-10-HYDROXYCAMPTOTHECIN] gave a solubility [1] of 17.6 µg/mL (≈ 45 µM), a solubility [2] of 77.4 µg/mL (≈ 197 µM) and a solubility [3] of 7.74 µg/mL (≈ 19.7 µM).
In the case of `CCc1c2c(nc3ccc(OC(=O)N4CCC(N5CCCCC5)CC4)cc13)-c1cc3c(c(=O)n1C2)COC(=O)[C@]3(O)CC` [IRINOTECAN], the Activity (HCT-116 [4]) is reported as 0.256%, the Activity (HCT-116 [5]) is reported as 6.15% and the viability at 25 µM (HCT-116 [6]) is reported as 92.5%. It also gave an IC50 (HCT-116 [7]) of 14.2 µM, a solubility [1] of 1200 µg/mL (≈ 2050 µM) and an Activity (SW480 [8]) of 0.871%. For the same compound, the IC50 [9] was 22.2 µM, the Activity (SW480 [10]) was 74.5% and the IC50 [11] was 19.8 µM. For the same compound, the IC50 (SW480 [12]) was 11.2 µM, the Activity [13] was “Non-Toxic” and the viability at 25 µM (SW480 [14]) was 85%. The Activity (SW480 [15]) was 10.7%, the solubility [3] was 5590 µg/mL (≈ 9530 µM) and the Activity (HCT-116 [16]) was 1.51%.
For `CCc1c2c(nc3ccc(OC(=O)NCCOCc4cn(CCO[C@H]5O[C@@H](CO)[C@H](O)[C@@H](O)[C@@H]5O)nn4)cc13)-c1cc3c(c(=O)n1C2)COC(=O)[C@]3(O)CC`, the Activity [17] was “Non-Toxic”, the Activity (HCT-116 [4]) was 2.2% and the Activity (HCT-116 [5]) was 14.1%. For the same compound, the viability at 25 µM (HCT-116 [6]) was 80.1%, the Activity (SW480 [18]) was “Active” and the Activity [19] was “Non-Toxic”. For the same compound, the Activity [20] was “Non-Toxic”, the IC50 (HCT-116 [7]) was 0.27 µM and the selectivity ratio [21] was 124. For the same compound, the Activity (HCT-116 [22]) was “Active”, the Activity [23] was “Non-Toxic” and the Activity (SW480 [24]) was “Active”. The Activity (SW480 [25]) was “Dose-Dependent Effect”, the Activity [26] was “Non-Toxic” and the selectivity ratio [27] was 73.5. The Activity [28] was “Non-Toxic”, the inhibition (SW480 [29]) was “Dose-Dependent Effect” and the inhibition (HCT-116 [30]) was “Dose-Dependent Effect”. For the same compound, the Activity (SW480 [8]) was 5.33%, the IC50 [9] was 1.54 µM and the selectivity ratio [31] was 9.62. The Activity (HCT-116 [32]) was “Active”, the Activity [33] was “Non-Toxic” and the Activity (HCT-116 [34]) was “Active”. The Activity [35] was “Non-Toxic”, the Activity (SW480 [36]) was 6% and the Activity (SW480 [10]) was 26.7%. For the same compound, the Activity (HCT-116 [37]) was 20.1%, the Activity (SW480 [38]) was “Active” and the IC50 [11] was 19.8 µM. The Activity [39] was “Non-Toxic”, the IC50 (SW480 [12]) was 0.16 µM and the Activity [40] was “Non-Toxic”. For the same compound, the Activity [41] was “Non-Toxic”, the viability at 25 µM (SW480 [14]) was 50% and the Activity (SW480 [15]) was 38.7%. The Activity (SW480 [42]) was “Active”, the Activity [43] was “Non-Toxic” and the selectivity ratio [44] was 5.7. The Activity (SW480 [45]) was “Active”, the solubility [3] was 2530 µg/mL (≈ 3300 µM) and the Activity [46] was “Non-Toxic”. The Activity (HCT-116 [16]) was 3.67%.
